Experimental data published in the NIST ThermoML archive (doi:10.1016/j.jct.2011.07.002).
Numbers after ± are expanded uncertainties.

Assays:
[1] = mn = molality of the nth substance listed, in mol/kg; conditions: 101 kPa, Liquid; for mass density: Vibrating tube method
[2] = molar heat capacity at constant pressure; mn = molality of the nth substance listed, in mol/kg; conditions: 298.15 K, 101 kPa, Liquid, Flow calorimetry

Cc1cn([C@H]2CC(O)[C@@H](CO)O2)c(=O)[nH]c1=O (stereo not given in full) [thymidine] + O
[1]
Conditions	mass density [kg/m3]	speed of sound [m/s]
288.15 K, m1 = 0.02897	1001.3 ± 0.036	–
288.15 K, m1 = 0.04107	1002.22 ± 0.036	–
288.15 K, m1 = 0.05418	1003.2 ± 0.036	–
288.15 K, m1 = 0.06905	1004.3 ± 0.037	–
288.15 K, m1 = 0.08071	1005.18 ± 0.038	–
288.15 K, m1 = 0.0935	1006.13 ± 0.038	–
288.15 K, m1 = 0.1077	1007.17 ± 0.039	–
288.15 K, m1 = 0.122	1008.22 ± 0.039	–
288.15 K, m1 = 0.1336	1009.07 ± 0.04	–
298.15 K, m1 = 0.02049	998.571 ± 0.036	1498.1 ± 1
298.15 K, m1 = 0.03005	999.279 ± 0.036	1498.8 ± 1
298.15 K, m1 = 0.03798	999.866 ± 0.035	1499.4 ± 1
298.15 K, m1 = 0.04153	1000.13 ± 0.036	1499.6 ± 1
298.15 K, m1 = 0.04752	1000.57 ± 0.036	1500 ± 1
298.15 K, m1 = 0.05597	1001.19 ± 0.036	1500.6 ± 1
298.15 K, m1 = 0.06455	1001.82 ± 0.036	1501.2 ± 1
298.15 K, m1 = 0.0743	1002.53 ± 0.037	1501.9 ± 1
298.15 K, m1 = 0.08286	1003.15 ± 0.037	1502.4 ± 1
298.15 K, m1 = 0.09266	1003.86 ± 0.037	1503.1 ± 1
303.15 K, m1 = 0.02802	997.714 ± 0.037	–
303.15 K, m1 = 0.03767	998.422 ± 0.037	–
303.15 K, m1 = 0.04737	999.127 ± 0.037	–
303.15 K, m1 = 0.05795	999.898 ± 0.037	–
303.15 K, m1 = 0.06905	1000.7 ± 0.037	–
303.15 K, m1 = 0.08175	1001.62 ± 0.038	–
303.15 K, m1 = 0.09431	1002.52 ± 0.038	–
303.15 K, m1 = 0.1077	1003.49 ± 0.039	–
303.15 K, m1 = 0.1198	1004.35 ± 0.038	–
313.15 K, m1 = 0.03767	994.944 ± 0.039	–
313.15 K, m1 = 0.04737	995.64 ± 0.038	–
313.15 K, m1 = 0.05795	996.397 ± 0.038	–
313.15 K, m1 = 0.0689	997.176 ± 0.038	–
313.15 K, m1 = 0.08175	998.094 ± 0.038	–
313.15 K, m1 = 0.09431	998.979 ± 0.038	–
313.15 K, m1 = 0.1079	999.926 ± 0.037	–
313.15 K, m1 = 0.1198	1000.77 ± 0.038	–

[2]
Conditions	molar heat capacity at constant pressure [J/K/mol]
m1 = 0.02897	450.9 ± 8.4
m1 = 0.04107	449.7 ± 6.4
m1 = 0.05418	447.6 ± 7.4
m1 = 0.06918	452.8 ± 5.8
m1 = 0.08071	452 ± 5.4
m1 = 0.0935	452.9 ± 4.8
m1 = 0.1078	453.3 ± 4.4
m1 = 0.122	453.8 ± 4.8
m1 = 0.1336	455.5 ± 3.5
